How the values were obtained:
[1] = test system: HT-29; experiment: Proliferation assay, HT-29 cells; type: cell-based, human
[2] = test system: LS-1034; experiment: Proliferation assay, LS-1034 cells; type: cell-based, human
From the text: (§1) Cells: The human breast cancer cell lines MCF-7 and MCF-7 DX, were obtained from Dr. R. Supino (Laboratorio Oncologia, Milano, Italy); the murine 3LLD122 highly metastatic Lewis lung carcinoma cell line was obtained from Dr. Eisenbach L, the Weizmann Inst., Israel. The following cell lines were purchased from the ATCC, USA: CT-26, an N-nitroso-N-methylurethane-(NNMU) induced murine (BALB-C) colon carcinoma; Panc02, a mouse (C57/Bl) pancreas adenocarcinoma; HT-49, a human colorectal adenocarcinoma; LS1034, a multidrug resistant human colorectal carcinoma; BxPC-3 human pancreas adenocarcinoma; MES-SA and MES-SA-DXS, human uterine sarcoma sensitive and multidrug resistant, respectively; and Human prostate carcinoma 22RV1, a subclone of CWR22 cells.
(§2) The cells were maintained in DMEM growth medium supplemented with 10% heat inactivated fetal calf serum, 2 mM glutamine, penicillin (250 units/ml) and streptomycin (125 μg/ml) in a humidified 5% CO2/air atmosphere at 37° C.
(§3) Proliferation assay: cells at a density of 3-5×10^4 cells/ml in 200 μl medium supplemented with 10% FCS were seeded in tissue culture 96-well plates for 24 hours, and were then exposed for 72 hours to a novel derivative of a chemotherapeutic agent (in quadruplicate) as specified. After 3 days, the cells were rinsed with PBS, and fixed with ethanol (70%) for 30 minutes. The ethanol was thereafter discarded, 200 μl of 10 μg/ml HOECHST fluorescent dye (Sigma) solubilized in PBS were added and the fluorescence was measured at 390-460 nm with a FluoStar fluorometer. MTT solution (10 ml of 5 mg/ml MTT (Sigma) in PBS) was added, and the plate was incubated for 3 hours. Formazan crystals were dissolved with 140 ml of 0.04 HCl-isopropanol. The optical density of the wells was measured with a microplate reader at 540 nm.
(§4) IC50 and IC90 values were determined from the best-fitted curve where the percentages of survival were 50 or 90 respectively.

[3] = test system: CT-26; experiment: Proliferation assay, CT-26 cells; type: cell-based, murine; conditions: CT-26
From the text: as §1, §2, §3, §4

[4] = test system: BXPC-3; experiment: Proliferation assay, BXPC-3 cells; type: cell-based, human
From the text: as §1, §2, §3, §4

[5] = test system: Panc 02; experiment: Proliferation assay, Panc 02 cells; type: cell-based; conditions: Mus musculus, Panc02
From the text: as §1, §2, §3, §4

[6] = test system: MES SA; experiment: Proliferation assay, MES SA cells; type: cell-based, human
From the text: as §1, §2, §3, §4

[7] = test system: MES SA DXS; experiment: Proliferation assay, MES SA DXS cells; type: cell-based, human; conditions: for IC50 / IC90: MES SA DXS
From the text: as §1, §2, §3, §4

[8] = test system: sensitive and resistant uterine cancer cells (MES-SA, MES-SA DXS); experiment: Proliferation/survival, sensitive and resistant uterine cancer cells (both lines); type: cell-based, human
From the text: as §1, §3, §4

[9] = test system: colon cancer cells (LS-1034 and HT-29); experiment: Survival of colon cancer cells (both lines); type: cell-based, human
Description: (§5) Cells: The human breast cancer cell lines MCF-7 and MCF-7 DX, were obtained from Dr. R. Supino (Laboratorio Oncologia, Milano, Italy); the murine 3LLD122 highly metastatic Lewis lung carcinoma cell line was obtained from Dr. Eisenbach L, the Weizmann Inst., Israel. […]
(§6) Proliferation assay: cells at a density of 3-5×10^4 cells/ml in 200 μl medium supplemented with 10% FCS were seeded in tissue culture 96-well plates for 24 hours, and were then exposed for 72 hours to a novel derivative of a chemotherapeutic agent (in quadruplicate) as specified. […] The ethanol was thereafter discarded, 200 μl of 10 μg/ml HOECHST fluorescent dye (Sigma) solubilized in PBS were added and the fluorescence was measured at 390-460 nm with a FluoStar fluorometer. […] The optical density of the wells was measured with a microplate reader at 540 nm.
as §4

[10] = test system: various cell lines; experiment: Dose response studies in various cell lines, absence and presence of semicarbazide; type: cell-based
Description: as §3
Semicarbazide sensitive amine oxidase is a source of formaldehyde and is therefore a marker for the effect of formaldehyde. It has been shown that semicarbazide traps formaldehyde and reduces its concentration inside the cell (Nudelman et al. J. Med. Chem., 2005, 48, 1047-1054). Thus, the critical role of formaldehyde can be confirmed by reversal of formaldehyde-mediated effects by the addition of semicarbazide.
Tables 3 and 4 below, as well as FIGS. 7A, 7B and 8A-8D present the dose response studies performed with various cell lines in the absence and presence of semicarbazide, the formaldehyde trapping agent.

[11] = test system: histone acetylation; experiment: Histone acetylation in treated cells; type: cell-based
Description: Western blot analysis: Whole cell tissue lysates or acid extracted histones were solubilized in a 4-fold concentrated sample buffer and […] protein samples were separated by SDS-PAGE. The proteins were transferred to a nitrocellulose membrane (Schleicher & Schuell, Germany) and probed with the primary antibodies as indicated, followed by incubation with an HRP-goat anti-rabbit IgG secondary antibody. Visualization of the bound HRP-goat anti-rabbit IgG was performed using the enhanced chemiluminescence that was done using Western Blotting Luminol reagent (cat No. SC-2048, Santa Cruz, Calif., US). Equal amounts of reagent A and B were mixed, and added to the nitrocellulose membrane for 1 minute. Excess liquid was absorbed and the membrane was exposed for 5 minutes to Chemiluminescence BioMax light film (cat. No. 868 9358, Kodak, USA). The intensity of the bands was measured with a Versa Doc instrument with Quantityl program (Bio-Rad, USA). The fold increase of each specific protein was determined by the ratio of band intensities of treated and untreated cells, normalized to loading control (actin or histone H3).

[12] = test system: colon carcinoma cells; experiment: Viability of colon carcinoma cells (FIG. 12); type: cell-based
Description: as §3
Apoptosis assay: Cells (2×10^5 cells/ml) were seeded in 24-well plates and incubated with a derivative of a chemotherapeutic agent according to the present embodiments, as specified, for 24 hours. The cells were thereafter collected and double-stained with annexin V-FITC and propidium iodide, according to the manufacturer's instructions (MBL, Japan). Alive, apoptotic and total dead cells were quantitated by flow cytometry using a FACS calibur cytometer (Becton Dickinson).

[13] = test system: prostate carcinoma cells 22RV; experiment: Viability of prostate carcinoma cells 22RV; type: cell-based, human
Description: as §5, §6
Apoptosis assay: Cells (2×10^5 cells/ml) were seeded in 24-well plates and incubated with a derivative of a chemotherapeutic agent according to the present embodiments, as specified, for 24 hours. […] Alive, apoptotic and total dead cells were quantitated by flow cytometry using a FACS calibur cytometer (Becton Dickinson).

[14] = test system: MCF-7 DX; experiment: Proliferation assay, MCF-7 DX cells; type: cell-based, human
Description: as §5, §6, §4

[15] = test system: HT-29 human colon carcinoma; experiment: Xenograft flank colon carcinoma model, HT29; type: in vivo; conditions: nude mice
Description: Xenograft flank colon carcinoma models: Eight weeks old, male CD1 nude mice (Harlan, Israel) were inoculated sc in the flanks with 5×10^6 HT29 or LS1034 cells. When tumor volume reached 50-100 mm^3, treatment with derivatives of chemotherapeutic agents according to the present embodiments commenced and was given by gavage five times a week for the duration of the experiment at the specified doses. Tumor volume (determined by caliper) and body weights were measured twice weekly. Tumor volume was measured (mm) using the formula for an ellipsoid sphere: Length×Width^2/2=Volume (mm)^3 This commonly used formula was also used to calculate tumor weight, assuming unit density (1 mm^3=1 mg). Serum PSA or CEA: […] At the end of the experiment blood samples were drawn from the eyes of mice (anesthetized slightly by inhalation of ether) or from the hearts of sacrificed animals.

[16] = Homo sapiens, tegafur value calculated by extrapolation from the best fitted curve

## CCCC(=O)OCn1c(=O)c(F)cn(C2CCCO2)c1=O [AN-420, 5-fluoro-2,3-dihydro-3-((R)-tetrahydrofuran-2-yl)-2,6-dioxopyrimidin-1(6H)-yl)methyl butyrate]
[1]; HT-29, + SC 500 μM
  IC90: 138 ± 30 µM
[1]; HT-29, + SC (semicarbazide) 500 μM
  IC50: 51 ± 5 µM
[1]; Homo sapiens, HT-29
  IC90: 84 ± 21 µM
[1]; Homo sapiens, HT-29, HT-29
  IC50: 35 ± 5 µM
[2]; Homo sapiens, LS-1034
  IC90: 79 ± 23 µM
[2]; Homo sapiens, LS-1034, LS-1034
  IC50: 42 ± 7 µM
[2]; LS-1034, + SC 500 μM
  IC50: 52 ± 8 µM
  IC90: 105 ± 29 µM
[3]; + SC 500 μM
  IC50: 34 ± 10 µM
  IC90: 94 ± 30 µM
[3]; Mus musculus, CT26
  IC50: 27 ± 4 µM
  IC90: 76 ± 14 µM
[4]; + SC 500 μM
  IC50: 88 ± 6 µM
  IC90: 280 ± 36 µM
[4]; Homo sapiens
  IC50: 74 ± 4 µM
  IC90: 141 ± 5 µM
[5]
  IC50: 46 ± 3 µM
  IC90: 149 ± 19 µM
[6]; + SC 500 μM
  IC50: 92 ± 14 µM
  IC90: 214 ± 80 µM
[6]; Homo sapiens
  IC50: 79 ± 22 µM
  IC90: 177 ± 77 µM
[7]; Homo sapiens
  IC50: 54 ± 5 µM
  IC90: 95 ± 8 µM
[7]; + SC 500 μM
  IC50: 115 ± 29 µM
  IC90: 312 ± 116 µM
[8]
  maximal cell killing achieved: 100%
[9]
  fold more potent than tegafur, based on IC90 values: ≥ 10 fold
[10]; semicarbazide 0.5 mM
  reduction of cell killing by co-treatment with semicarbazide: substantially reduced the cell killing
[11]
  histone acetylation in treated cells: increase of histone acetylation
[12]
  effect on cancer cell viability (% of control): significantly more effective than tegafur

## CCCC(=O)OCN1C(=O)CCC(N2C(=O)c3ccccc3C2=O)C1=O (stereo not drawn) [AN-438, 2-(1-butroyloxymethyl-2,6-dioxopiperidin-3-yl)isoindoline-1,3-dione]
[1]; human colon cells HT-29
  reduction of viability compared with thalidomide: significantly more effective in reducing the viability
[13]; prostate carcinoma cells 22RV
  reduction of viability compared with thalidomide: significantly more effective in reducing the viability
[13]; prostate carcinoma cells, 0.5 mM semicarbazide
  effect on viability on addition of semicarbazide: abrogated the effect

## CCCC(=O)OCn1c(=O)cc[nH]c1=O [AN-439, (2,3-Dihydro-2,6-dioxopyrimidin-1(6H)-yl)methyl butyrate]
[12]
  effect on cancer cell viability (% of control): reduced cell viability in a dose dependent manner

## COc1cccc2c1C(=O)c1c(O)c3c(c(O)c1C2=O)C[C@@](O)(C(=O)CO)C[C@@H]3O[C@H]1C[C@H](N)[C@H](O)[C@H](C)O1 [Doxorubicin]
[7]
  fold decrease in the inhibitory effect on proliferation, MES-SA DXS compared with the isogenetic non-resistant cell line: approximately 30 fold
[14]
  fold more resistant to doxorubicin, MCF-7 DX compared with MCF cells: approximately 7 fold
[14]; Homo sapiens, MCF7/DX, MCF-7 DX, 7 independent experiments
  IC50: 392 ± 40 µM

## NNC(N)=O [Semicarbazide, semicarbazide, reference compound]
[10]; 0.5 mM, absence of chemotherapeutic agents
  effect of semicarbazide alone on the cells: did not affect the cells

## O=c1[nH]c(=O)n(C2CCCO2)cc1F (stereo not drawn) [Tegafur, tegafur, reference compound]
[1]; Homo sapiens, HT-29
  IC90: 747 ± 52 µM
[1]; Homo sapiens, HT-29, HT-29
  IC50: 201 ± 15 µM
[2]; Homo sapiens, LS-1034
  IC90: 1600 ± 240 µM
[2]; Homo sapiens, LS-1034, LS-1034
  IC50: 519 ± 93 µM
[3]; Mus musculus, CT26
  IC50: 136 ± 19 µM
  IC90: 411 ± 23 µM
[4]; Homo sapiens
  IC50: 172 ± 21 µM
  IC90: 688 ± 113 µM
[5]
  IC50: 179 ± 25 µM
  IC90: 637 ± 66 µM
[6]; Homo sapiens
  IC50: 337 ± 20 µM
[6]; [16]
  IC90: 1200 ± 97 µM
[7]; Homo sapiens
  IC50: 405 ± 20 µM
[7]; [16]
  IC90: 1470 ± 96 µM
[8]
  maximal cell killing achieved: 80%
[15]
  CEA level in serum: higher
[15]; P<<0.001
  tumor growth inhibition: substantially inhibited tumor growth

## O=c1cc[nH]c(=O)[nH]1 [uracil, reference compound]
[12]
  effect on cancer cell viability (% of control): no effect

From patent US20070293517A1, “Derivatives Of Chemotherapeutic Agents With A Formaldehyde Releasing Moiety” (RAMOT AT TEL AVIV UNIVERSITY LTD., priority 2004, published 2007)
